Measurements reported in ChEMBL document CHEMBL6134868, “Novel Aryl Sulfonium Modification on Vancomycin to Tackle MRSA and VRE In Vitro and In Vivo through Dual Enhanced Cell-Wall and Membrane Inhibition” (J Med Chem, 2025).

Columns and labels:
Format in all cases: functional
Conditions in all cases: time 16-24 hrs
Staphylococcus aureus [1] = assay: Antibacterial activity against vancomycin-intermediate Staphylococcus aureus Mu50 incubated for 16 to 24 hrs by broth microdilution assay
Klebsiella pneumoniae = assay: Antibacterial activity against Klebsiella pneumoniae KP-1 incubated for 16 to 24 hrs by broth microdilution assay
Acinetobacter baumannii [2] = assay: Antibacterial activity against Acinetobacter baumannii ATCC19606 incubated for 16 to 24 hrs by broth microdilution assay
Escherichia coli = assay: Antibacterial activity against Escherichia coli AB1157 incubated for 16 to 24 hrs by broth microdilution assay
Acinetobacter baumannii [3] = assay: Antibacterial activity against carbapenem-resistant Acinetobacter baumannii CRAB-1 clinical isolate incubated for 16 to 24 hrs by broth microdilution assay
Enterococcus faecium [4] = assay: Antibacterial activity against vancomycin-resistant Enterococcus faecium Efm-HS-vb02 harboring VanB phenotype incubated for 16 to 24 hrs by broth microdilution assay
Enterococcus faecium [5] = assay: Antibacterial activity against vancomycin-resistant Enterococcus faecium Efm-HS-0649 harboring VanA phenotype incubated for 16 to 24 hrs by broth microdilution assay
Enterococcus faecium [6] = assay: Antibacterial activity against vancomycin-resistant Enterococcus faecium Efm-HS-vb01 harboring VanB phenotype incubated for 16 to 24 hrs by broth microdilution assay
Staphylococcus aureus [7] = assay: Antibacterial activity against methicillin-resistant Staphylococcus aureus USA300 LAC incubated for 16 to 24 hrs by broth microdilution assay
Pseudomonas aeruginosa = assay: Antibacterial activity against Pseudomonas aeruginosa PAO1 incubated for 16 to 24 hrs by broth microdilution assay
Enterococcus faecium [8] = assay: Antibacterial activity against vancomycin-resistant Enterococcus faecium Efm-HS-08257 harboring VanM phenotype incubated for 16 to 24 hrs by broth microdilution assay

Row | SMILES | MIC (Staphylococcus aureus [1]) [µg/mL] | MIC (Klebsiella pneumoniae) [µg/mL] | MIC (Acinetobacter baumannii [2]) [µg/mL] | MIC (Escherichia coli) [µg/mL] | MIC (Acinetobacter baumannii [3]) [µg/mL] | MIC (Enterococcus faecium [4]) [µg/mL] | MIC (Enterococcus faecium [5]) [µg/mL] | MIC (Enterococcus faecium [6]) [µg/mL] | MIC (Staphylococcus aureus [7]) [µg/mL] | MIC (Pseudomonas aeruginosa) [µg/mL] | MIC (Enterococcus faecium [8]) [µg/mL]
1 | CN[C@H](CC(C)C)C(=O)N[C@H]1C(=O)N[C@@H](CC(N)=O)C(=O)N[C@H]2C(=O)N[C@H]3C(=O)N[C@H](C(=O)N[C@H](C(=O)O)c4cc(O)c(CNCCC[S+](C)CC(O)COc5ccc(-c6ccc(Cl)cc6)cc5)c(O)c4-c4cc3ccc4O)[C@H](O)c3ccc(c(Cl)c3)Oc3cc2cc(c3O[C@@H]2O[C@H](CO)[C@@H](O)[C@H](O)[C@H]2O[C@H]2C[C@](C)(N)[C@H](O)[C@H](C)O2)Oc2ccc(cc2Cl)[C@H]1O.O=C([O-])C(F)(F)F (some centres not stated) | ≤ 0.063 | 128 | 16 | 8 | 16 | ≤ 0.063 | 0.5 | ≤ 0.063 | ≤ 0.063 | > 128 | 2
2 | CN[C@H](CC(C)C)C(=O)N[C@H]1C(=O)N[C@@H](CC(N)=O)C(=O)N[C@H]2C(=O)N[C@H]3C(=O)N[C@H](C(=O)N[C@H](C(=O)NCCC[S+](C)CC(O)COc4ccc(Br)cc4)c4cc(O)cc(O)c4-c4cc3ccc4O)[C@H](O)c3ccc(c(Cl)c3)Oc3cc2cc(c3O[C@@H]2O[C@H](CO)[C@@H](O)[C@H](O)[C@H]2O[C@H]2C[C@](C)(N)[C@H](O)[C@H](C)O2)Oc2ccc(cc2Cl)[C@H]1O.O=C([O-])C(F)(F)F (some centres not stated) | 1 | > 128 | 32 | 16 | 64 | 4 | 8 | 4 | ≤ 0.063 | 128 | 4
3 | CN[C@H](CC(C)C)C(=O)N[C@H]1C(=O)N[C@@H](CC(N)=O)C(=O)N[C@H]2C(=O)N[C@H]3C(=O)N[C@H](C(=O)N[C@H](C(=O)O)c4cc(O)c(CNCCC[S+](C)C[C@@H](O)COc5ccccc5)c(O)c4-c4cc3ccc4O)[C@H](O)c3ccc(c(Cl)c3)Oc3cc2cc(c3O[C@@H]2O[C@H](CO)[C@@H](O)[C@H](O)[C@H]2O[C@H]2C[C@](C)(N)[C@H](O)[C@H](C)O2)Oc2ccc(cc2Cl)[C@H]1O.O=C([O-])C(F)(F)F (some centres not stated) | 4 | > 128 | 128 | 16 | > 128 | 4 | > 128 | 2 | 0.5 | > 128 | 128
4 | CN[C@H](CC(C)C)C(=O)N[C@H]1C(=O)N[C@@H](CC(N)=O)C(=O)N[C@H]2C(=O)N[C@H]3C(=O)N[C@H](C(=O)N[C@H](C(=O)NCCC[S+](C)C[C@H](O)COc4ccccc4)c4cc(O)cc(O)c4-c4cc3ccc4O)[C@H](O)c3ccc(c(Cl)c3)Oc3cc2cc(c3O[C@@H]2O[C@H](CO)[C@@H](O)[C@H](O)[C@H]2O[C@H]2C[C@](C)(N)[C@H](O)[C@H](C)O2)Oc2ccc(cc2Cl)[C@H]1O.O=C([O-])C(F)(F)F (some centres not stated) | 1 | > 128 | 64 | 16 | > 128 | 4 | 32 | 16 | 0.25 | 128 | 16
5 | CN[C@H](CC(C)C)C(=O)N[C@H]1C(=O)N[C@@H](CC(N)=O)C(=O)N[C@H]2C(=O)N[C@H]3C(=O)N[C@H](C(=O)N[C@H](C(=O)O)c4cc(O)cc(O)c4-c4cc3ccc4O)[C@H](O)c3ccc(c(Cl)c3)Oc3cc2cc(c3O[C@@H]2O[C@H](CO)[C@@H](O)[C@H](O)[C@H]2O[C@H]2C[C@](C)(NCCC[S+](C)C[C@H](O)COc3ccccc3)[C@H](O)[C@H](C)O2)Oc2ccc(cc2Cl)[C@H]1O.O=C([O-])C(F)(F)F (some centres not stated) | 1 | > 128 | 128 | 128 | > 128 | 4 | 16 | 8 | 0.125 | > 128 | 16
6 | CN[C@H](CC(C)C)C(=O)N[C@H]1C(=O)N[C@@H](CC(N)=O)C(=O)N[C@H]2C(=O)N[C@H]3C(=O)N[C@H](C(=O)N[C@H](C(=O)O)c4cc(O)c(CNCCC[S+](C)C[C@H](O)COc5ccccc5)c(O)c4-c4cc3ccc4O)[C@H](O)c3ccc(c(Cl)c3)Oc3cc2cc(c3O[C@@H]2O[C@H](CO)[C@@H](O)[C@H](O)[C@H]2O[C@H]2C[C@](C)(N)[C@H](O)[C@H](C)O2)Oc2ccc(cc2Cl)[C@H]1O.O=C([O-])C(F)(F)F (some centres not stated) | 16 | > 128 | > 128 | 64 | > 128 | 8 | > 128 | 4 | 2 | > 128 | 128
7 | CC(C)C[C@H](C(=O)N[C@H]1C(=O)N[C@@H](CC(N)=O)C(=O)N[C@H]2C(=O)N[C@H]3C(=O)N[C@H](C(=O)N[C@H](C(=O)O)c4cc(O)cc(O)c4-c4cc3ccc4O)[C@H](O)c3ccc(c(Cl)c3)Oc3cc2cc(c3O[C@@H]2O[C@H](CO)[C@@H](O)[C@H](O)[C@H]2O[C@H]2C[C@](C)(N)[C@H](O)[C@H](C)O2)Oc2ccc(cc2Cl)[C@H]1O)N(C)CCC[S+](C)C[C@H](O)COc1ccccc1.O=C([O-])C(F)(F)F (some centres not stated) | 8 | > 128 | > 128 | > 128 | > 128 | 32 | > 128 | 64 | 2 | > 128 | 128
8 | CN[C@H](CC(C)C)C(=O)N[C@H]1C(=O)N[C@@H](CC(N)=O)C(=O)N[C@H]2C(=O)N[C@H]3C(=O)N[C@H](C(=O)N[C@H](C(=O)NCCC[S+](C)CC(O)COc4ccc(-c5ccc(C(F)(F)F)cc5)cc4)c4cc(O)cc(O)c4-c4cc3ccc4O)[C@H](O)c3ccc(c(Cl)c3)Oc3cc2cc(c3O[C@@H]2O[C@H](CO)[C@@H](O)[C@H](O)[C@H]2O[C@H]2C[C@](C)(N)[C@H](O)[C@H](C)O2)Oc2ccc(cc2Cl)[C@H]1O.O=C([O-])C(F)(F)F (some centres not stated) | 0.25 | > 128 | 32 | 16 | 128 | 0.5 | 2 | 4 | 0.5 | > 128 | 1
9 | CC(C)C[C@H](C(=O)N[C@H]1C(=O)N[C@@H](CC(N)=O)C(=O)N[C@H]2C(=O)N[C@H]3C(=O)N[C@H](C(=O)N[C@H](C(=O)O)c4cc(O)cc(O)c4-c4cc3ccc4O)[C@H](O)c3ccc(c(Cl)c3)Oc3cc2cc(c3O[C@@H]2O[C@H](CO)[C@@H](O)[C@H](O)[C@H]2O[C@H]2C[C@](C)(N)[C@H](O)[C@H](C)O2)Oc2ccc(cc2Cl)[C@H]1O)N(C)CCC[S+](C)CC(O)COc1ccccc1.O=C([O-])C(F)(F)F (some centres not stated) | 8 | > 128 | > 128 | > 128 | > 128 | 32 | > 128 | 64 | 2 | > 128 | 128
10 | CN[C@H](CC(C)C)C(=O)N[C@H]1C(=O)N[C@@H](CC(N)=O)C(=O)N[C@H]2C(=O)N[C@H]3C(=O)N[C@H](C(=O)N[C@H](C(=O)NCCC[S+](C)CC(O)COc4ccc(-c5ccccc5)cc4)c4cc(O)cc(O)c4-c4cc3ccc4O)[C@H](O)c3ccc(c(Cl)c3)Oc3cc2cc(c3O[C@@H]2O[C@H](CO)[C@@H](O)[C@H](O)[C@H]2O[C@H]2C[C@](C)(N)[C@H](O)[C@H](C)O2)Oc2ccc(cc2Cl)[C@H]1O.O=C([O-])C(F)(F)F (some centres not stated) | 0.5 | > 128 | 32 | 16 | 128 | 1 | 8 | 4 | ≤ 0.063 | > 128 | 4
11 | CN[C@H](CC(C)C)C(=O)N[C@H]1C(=O)N[C@@H](CC(N)=O)C(=O)N[C@H]2C(=O)N[C@H]3C(=O)N[C@H](C(=O)N[C@H](C(=O)O)c4cc(O)cc(O)c4-c4cc3ccc4O)[C@H](O)c3ccc(c(Cl)c3)Oc3cc2cc(c3O[C@@H]2O[C@H](CO)[C@@H](O)[C@H](O)[C@H]2O[C@H]2C[C@](C)(NCCC[S+](C)CC(O)COc3ccccc3)[C@H](O)[C@H](C)O2)Oc2ccc(cc2Cl)[C@H]1O.O=C([O-])C(F)(F)F (some centres not stated) | 1 | > 128 | 128 | 128 | 128 | 4 | 16 | 16 | 0.25 | > 128 | 16
12 | CN[C@H](CC(C)C)C(=O)N[C@H]1C(=O)N[C@@H](CC(N)=O)C(=O)N[C@H]2C(=O)N[C@H]3C(=O)N[C@H](C(=O)N[C@H](C(=O)NCCC[S+](C)CC(O)CCc4ccccc4)c4cc(O)cc(O)c4-c4cc3ccc4O)[C@H](O)c3ccc(c(Cl)c3)Oc3cc2cc(c3O[C@@H]2O[C@H](CO)[C@@H](O)[C@H](O)[C@H]2O[C@H]2C[C@](C)(N)[C@H](O)[C@H](C)O2)Oc2ccc(cc2Cl)[C@H]1O.O=C([O-])C(F)(F)F (some centres not stated) | 2 | > 128 | > 128 | 32 | > 128 | 2 | 32 | 32 | 0.5 | 128 | 32
